Test results published in patent US20070167402A1, “Product of coprecipitation of sparingly soluble substance and water-soluble polymer and process for producing the same” (Meiji Seika Kaisha, Ltd., priority 2003, published 2007).

Assay: Test 1: Solubility Test (water as test medium, 37° C., HPLC)
Type: physicochemical
Settings: for solubility in aqueous methyl cellulose or HPMC solution: test medium e.g. 0.5% aqueous methyl cellulose or HPMC solution, compared with value in water (below 3 μg/mL); for solubility (concentration of Compound A in suspension): 37° C., at the point of 30 minutes in Test 1
Protocol: Each mixture was sampled at several points of time, and each sample was filtered through a membrane filter (Sunprep LCR13-LG, manufactured by Millipore Corp., Japan).
The measurement conditions used for HPLC in Test 1 were as follows: • Detector: Ultraviolet absorptiometer (measurement wavelength: 246 nm) • Column: Stainless steel tube with an inner diameter of 4.6 mm and a length of 25 cm, for 5 μm liquid chromatography, • Column temperature: Fixed temperature at around 40° C. • Mobile phase: Mixture of methanol and water (55:45) • Flow rate: 1 mL/min

COc1cc2[nH]c(=O)c3nn(C(OC(=O)OC(C)C)C(C)C)nc3c(=O)c2cc1OC (single isomer, unassigned) [Comparative Example 1, 2-(1-Isopropoxycarbonyloxy-2-methylpropyl)-7,8-dimethoxy-4(5H), 10-dioxo-2H-1,2,3-triazolo[4,5-c][1]benzazepine]
solubility in aqueous methyl cellulose or HPMC solution: nearly equal to the above-described value of concentration
solubility (concentration of Compound A in suspension) (water): 0.8 µg/mL
solubility (water, 37 °C, water, thermodynamic from solid, water 37° C., 200 rpm paddles, at 30 minutes after the beginning of the test and after, read-out: concentration of Compound A in solubility test (FIG. 1)): < 3 µg/mL

COc1cc2[nH]c(=O)c3nn(C(OC(=O)OC(C)C)C(C)C)nc3c(=O)c2cc1OC (single isomer, unassigned) [Comparative Example 2, 2-(1-Isopropoxycarbonyloxy-2-methylpropyl)-7,8-dimethoxy-4(5H), 10-dioxo-2H-1,2,3-triazolo[4,5-c][1]benzazepine]
solubility in aqueous methyl cellulose or HPMC solution: nearly equal to the above-described value of concentration
solubility (concentration of Compound A in suspension) (water): 2.4 µg/mL
